Three molecules from ChEMBL document CHEMBL5532667 (J Med Chem, 2024) can be followed below.

Broadly, the IC50 is the concentration at which inhibition is half-maximal. A high value points to lower potency. Broadly, the Vd is the apparent volume that relates the amount in the body to the concentration in plasma or blood. A high value points to extensive tissue distribution. In general, clearance refers to the volume of plasma or blood freed of the substance per unit of time. A low value points to a low capacity for elimination. What is called half-life is the time needed for the level to fall by half in the phase considered. A lower half-life goes with fast loss. The term AUC(0-t) denotes exposure summed from dosing to a finite time, without extrapolation to infinity. A low value points to less exposure.

≈ marks a conversion by molar mass, not a printed value.

Series [1] deals with T1, Progesterone receptor (Homo sapiens, UniProt P06401).
T1 sequence (P06401 whole entry): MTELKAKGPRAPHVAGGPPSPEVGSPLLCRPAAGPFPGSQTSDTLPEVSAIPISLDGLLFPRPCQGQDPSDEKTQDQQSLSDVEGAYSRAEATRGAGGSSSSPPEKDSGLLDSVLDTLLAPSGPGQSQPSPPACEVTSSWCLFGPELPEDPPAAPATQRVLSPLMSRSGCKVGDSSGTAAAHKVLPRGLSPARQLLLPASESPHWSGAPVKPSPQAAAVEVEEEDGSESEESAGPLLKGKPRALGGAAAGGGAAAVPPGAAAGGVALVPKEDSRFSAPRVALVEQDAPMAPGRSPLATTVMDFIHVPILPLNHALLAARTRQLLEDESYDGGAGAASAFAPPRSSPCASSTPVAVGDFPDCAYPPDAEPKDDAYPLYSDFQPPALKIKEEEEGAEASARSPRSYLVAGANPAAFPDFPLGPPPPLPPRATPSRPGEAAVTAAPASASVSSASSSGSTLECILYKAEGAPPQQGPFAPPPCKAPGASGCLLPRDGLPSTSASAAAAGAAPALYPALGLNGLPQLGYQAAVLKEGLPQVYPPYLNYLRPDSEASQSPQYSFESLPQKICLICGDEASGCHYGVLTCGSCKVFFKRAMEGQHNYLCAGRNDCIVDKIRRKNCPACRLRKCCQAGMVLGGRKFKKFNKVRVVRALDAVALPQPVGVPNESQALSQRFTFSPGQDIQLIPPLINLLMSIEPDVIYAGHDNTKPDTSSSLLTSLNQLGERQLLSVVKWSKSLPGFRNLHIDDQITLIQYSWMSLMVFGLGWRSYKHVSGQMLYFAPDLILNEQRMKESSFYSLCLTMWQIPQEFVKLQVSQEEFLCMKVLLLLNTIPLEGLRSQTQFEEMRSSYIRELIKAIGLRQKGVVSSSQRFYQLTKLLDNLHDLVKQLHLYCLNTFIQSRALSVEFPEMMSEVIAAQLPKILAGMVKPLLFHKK
Format: cell-based, HEK293T.
Description: Antagonist activity at PR in HEK293T cells assessed as reduction in transcriptional activity incubated for 24 hrs by britelite plus reagent based plate reader assay

For series [2], the target named is T2, Thyroid hormone receptor beta (Homo sapiens, UniProt P10828).
T2 sequence (P10828 whole entry): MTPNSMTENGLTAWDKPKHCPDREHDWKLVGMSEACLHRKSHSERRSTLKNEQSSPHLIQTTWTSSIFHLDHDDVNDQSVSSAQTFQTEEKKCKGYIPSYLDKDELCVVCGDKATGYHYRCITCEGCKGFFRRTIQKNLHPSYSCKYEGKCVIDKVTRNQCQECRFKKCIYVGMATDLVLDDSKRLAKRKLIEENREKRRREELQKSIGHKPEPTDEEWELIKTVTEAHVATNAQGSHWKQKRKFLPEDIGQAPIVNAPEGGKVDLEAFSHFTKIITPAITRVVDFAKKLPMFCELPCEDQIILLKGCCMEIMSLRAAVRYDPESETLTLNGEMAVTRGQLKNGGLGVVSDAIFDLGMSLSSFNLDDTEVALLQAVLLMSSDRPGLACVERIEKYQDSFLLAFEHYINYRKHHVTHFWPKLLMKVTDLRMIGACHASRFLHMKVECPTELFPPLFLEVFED
Format: cell-based, HEK293T.
Description: Antagonist activity at TRbeta in HEK293T cells assessed as reduction in transcriptional activity incubated for 24 hrs by britelite plus reagent based plate reader assay

A short description of series [3]: in vivo. The conditions noted are these: C57BL/6, mouse, iv, 1 mg/kg.
Series [4] is described as follows: in vivo. The conditions noted are these: C57BL/6, mouse, iv, 1 mg/kg. The source holds these as a separate data set.
Series [5] is described as follows: in vivo. The conditions noted are these: C57BL/6, mouse, iv, 1 mg/kg. This is another data set of the same source.
Series [6] is described as follows: in vivo. The conditions noted are these: C57BL/6, mouse, iv, 1 mg/kg. The source holds these as a separate data set.
A short description of series [7]: in vivo. The conditions noted are these: C57BL/6, mouse, iv, 1 mg/kg. This is another data set of the same source.
Series [8] can be described thus: in vivo. The settings on record: C57BL/6, mouse, brain, iv, 1 mg/kg.
A short description of series [9]: in vitro. The conditions noted are these: mouse, nih3t3.
Description: Dark toxicity against BALB/c mouse 3T3 cells assessed as reduction in cell viability incubated for 1 hr by neutral red dye based assay
Series [10] concerns NIH3T3. Put plainly: cells. The settings on record: Mus musculus, BALB/c, NIH3T3, light or radiation study.
Description: Phototoxicity against BALB/c mouse 3T3 cells assessed as reduction in cell viability preincubated for 1 hr followed by 5 J/cm2 irradiation and subsequent replacement of medium without compound and measured after 24 hrs by neutral red dye based assay

On to `C[C@](O)(CN1CC2CC(C1)N2c1ccc(C#N)cc1)C(=O)Nc1cnc(C#N)c(C(F)(F)F)c1`, for which the IC50 is 3.5 µM in series [1] and above 10 µM in series [2].

For the molecule `C[C@](O)(CN1CC2CC(C1)N2c1ccc(C#N)cc1F)C(=O)Nc1cnc(C#N)c(C(F)(F)F)c1`, in series [3], the Vd at 24 h came out at 1.35 L/kg. In [4], this molecule came in with a C0 at 24 h of 1060 ng/mL. The clearance at 24 h in series [5] was 37.8 mL/min/kg. Besides, the half-life at 24 h in [6] was 54.6 min. Further, in series [7], the area under the curve AUC(0-t) at 24 h was 444 ng·h/mL. Further, the Kp at 24 h in series [8] was determined as 0.45.

For `CN(C)CCCN1c2ccccc2Sc2ccc(Cl)cc21` [CHLORPROMAZINE], half-maximal inhibition in [9] (IC50 at 1 h) was put at 45.1 µg/mL (≈ 141 µM). The molecule further had a half-maximal inhibitory concentration (IC50) in [10] of 0.93 µg/mL (≈ 2.92 µM).
